Marks after values point to notes of the source that are not given here.
Key:
[1] = Spontaneous tumorigenesis, experimental models; format: in vivo; settings: IM862 prophylactically
[2] = Pediatric purulent maxillary sinusitis, local IM862; format: in vivo, human; settings: for B-lymphocytes % / B-lymphocytes abs. / Immune complexes / Leukocytes, abs / Lymphocytes % / Lymphocytes, abs / O-lymphocytes % / O-lymphocytes abs. / T-lymphocytes % / T-lymphocytes abs. / Lysozyme: after treatment c IM862
[3] = Blood parameters of Chernobyl victims after 3 years of treatment; format: in vivo, human; settings: after therapy, IM862
From the text: Blood parameters after 3 years of such treatment were restored to the statistical norm prior to their exposure to the radiation.

[4] = Chronic prostatitis, clinical result and immunological examination
Description: A clinical study of the preparation was conducted in 34 chronic prostatitis patients having active inflammation. Patients were aged 22 to 45 years old. Diagnosis was established by patient complaints, a medical history, palpation of the prostate, and laboratory investigation methods (microscopic examination of prostate gland secretions, spermography, three-cup urinalysis).
A traditional treatment plan was followed simultaneously, using antibacterial preparations, uroantiseptics, physical procedures, prostate gland massage, and therapeutic exercise.
Measurement reliability of the obtained indices was evaluated with the use of variable statistics methods.
The persistent disappearance (over an observation period of 1-1.5 months) of painful sensations, leukocyturia, the lowering of the leukocyte count to normal levels in prostate gland secretions and ejaculate, and the overall improvement in the general state of the patient were all deemed to be a good result.
The normalization of all laboratory indices while complaints of pain persisted in the perineum, sacrum, anal region, scrotum, etc. was rated as a satisfactory result.
The second group was made up of patients with lowered initial indices, and the third had patients with elevated initial indices.

[5] = Chronic pyoderma (staphylococcal skin diseases), clinical and immunological testing
Description: IM862 was used in the form of a 0.01% solution (100 μg of the preparation in one IV tube). The preparation was administered intranasally, daily, at 100 μg for a course of 5 days.
The effectiveness of IM862 use was evaluated according to the subjective impression of the patient, clinical findings, body temperature, general clinical and immunological testing of the peripheral blood. Also, bacteriological investigation of the disease agents were conducted before and after treatment with IM862.
IM862 was administered to 59 chronic pyoderma patients. […] The patients ranged in age from 18 to 56 years old. Thirty-two men and 27 women were studied. Duration of illness was from 5 months to 16 years.
For determining the norm of T- and B-system immunity and non-specific resistance, 175 healthy donors (men & women), aged 18 to 50 years, were examined. Lymphocytes were extracted from the heparinized (25 U/ml) peripheral blood of healthy and ill persons in a ficoll-urotrast density gradient. T-lymphocytes were identified by spontaneous rosette-formation with ram erythrocytes. The T-lymphocyte subpopulations were determined with the aid of mouse monoclonal antibodies, OKT4 and OKT8, as well as with the aid of a theophylline resistance test. B-lymphocytes were determined by rosette-formation with mouse erythrocytes. The B-lymphocyte subpopulations were determined according to the presence of various classes of immunoglobulins (Ig+, IgM^+, IgG^+, IgA^+) on their surfaces with the aid of monospecific antibodies. In serum, the content of the immunoglobulins M, G, & A, and the C3-component of complement was determined by using monospecific sera to human immunoglobulins with the radial immunodiffusion method. The percentage of migration inhibition in a LMIR with PHA and ConA was determined using the hemolytic staphylococcus allergen (HSA). The phagocytic activity of the neutrophils (percent and absolute quantity of phagocytic polymorphonuclear leukocytes) and the phagocytic index (mean quantity of microorganisms absorbed by a single phagocyte) were studied with the use of a museum culture of the “Oxford 209P” strain. Other analyzed parameters were the cationic protein content (MCC) in the neutrophils, the serum immune complexes (CIC), the natural killer activity (CI) by the 3H-uridine test, and the quantity of neutrophils forming rosettes with sheep erythrocytes.

[6] = acute purulent maxillary sinusitis
[7] = chronic purulent maxillary sinusitis and Highmore ethmoiditis
[8] = second group, after IM862 treatment
[9] = 34 chronic prostatitis patients
[10] = after treatment 100 μg i.m. for 5 days
[11] = elevated in 1 patient, after treatment
[12] = initial level lowered n = 14, after treatment
[13] = normal in 34 patients, after treatment
[14] = Abscessing and indurative comedones
[15] = after IM862, phagocytosis with staph. cells
[16] = after treatment with IM862 (Table 21)

Glu-Trp [IM862]
spontaneous tumorigenesis [1]: diminished frequency of spontaneous tumorigenesis
B-lymphocytes % [2, 6]: 21.9 ± 2.1%
B-lymphocytes abs. [2, 6]: 778.0 ± 89.9
Immune complexes [2, 6]: 113.3 ± 15.3
Leukocytes, abs [2, 6]: 7200.0 ± 234.5
Lymphocytes % [2, 6]: 44.7 ± 1.7%
Lymphocytes, abs [2, 6]: 3281.3 ± 235.0
O-lymphocytes % [2, 6]: 34.3 ± 2.4%
O-lymphocytes abs. [2, 6]: 1082.0 ± 21.0
T-lymphocytes % [2, 6]: 41.8 ± 1.2%
T-lymphocytes abs. [2, 6]: 1420.3 ± 131.6
Lysozyme ([2]; acute purulent maxillary sinusitis, outwash from sinuses): 45.0 ± 5.9
B-lymphocytes % [2, 7]: 20.7 ± 0.7%
B-lymphocytes abs. [2, 7]: 562.0 ± 38.1
Immune complexes [2, 7]: 90.8 ± 10.0
Leukocytes, abs [2, 7]: 6650.0 ± 262.2
Lymphocytes % [2, 7]: 41.5 ± 2.6%
Lymphocytes, abs [2, 7]: 2761.8 ± 212.6
Lysozyme [2, 7]: 52.4 ± 4.1
O-lymphocytes % [2, 7]: 37.4 ± 1.9%
O-lymphocytes abs. [2, 7]: 1052.5 ± 109.3
T-lymphocytes % [2, 7]: 41.8 ± 1.0%
T-lymphocytes abs. [2, 7]: 1109.8 ± 74.1
time until improvement was noted ([2]; first group): 2 to 3 days
average hospital stay ([2]; first group (acute and subacute)): 9.2 days
quantity of crystallization centers in irrigated fluid ([2]; first group, end of treatment): 30-50
cessation of exudation, number of patients ([2]; first group, in 7-9 days of treatment): 3 patients
cessation of exudation, number of patients ([2]; first group, on the 6th day of treatment): 5 patients
nasal breathing and general sense of wellness normalized, number of patients ([2]; second group): 38 patients
average hospital stay ([2]; second group (chronic)): 8 days
immunoglobulin M remained elevated, number of patients [2, 8]: 24 patients
serum immunoglobulin A normalized, number of patients [2, 8]: 10 patients
serum immunoglobulin G normalized, number of patients [2, 8]: 6 patients
increase in exudation from the affected sinuses ([2]; second group, at 3-4 days of treatment vs second 24-hour period): 10-15%
quantity of crystallization centers in irrigated fluid ([2]; second group, control crystallograms): 50-60
disappearance of edema of the nasal mucosa, number of patients ([2]; second group, following 4-5 days of treatment): 32 patients
exudate attained a mucous character, number of patients ([2]; second group, in 3-4 days): 27 patients
cessation of exudation, number of patients ([2]; second group, in 4-6 days): 18 patients
exudate attained a mucous character, number of patients ([2]; second group, in 5-6 days): 13 patients
cessation of exudation, number of patients ([2]; second group, in 7-9 days): 20 patients
exudate attained a mucous character, number of patients ([2]; second group, in 7-9 days): two
cessation of exudation, number of patients ([2]; second group, in 10-14 days): 4 patients
therapeutic action during localized use ([2]; various forms of paranasal sinusitis): normalization of nasal breathing, decrease in nasal cavity mucosal edema, cessation of exudation from the involved sinuses
B-Ig+, % [3]: 11.0 ± 0.3%
B-Ig+, abs [3]: 0.23 ± 0.04 10^9/l
B-IgA+, % [3]: 1.9 ± 0.3%
B-IgA+, abs [3]: 0.04 ± 0.002 10^9/l
B-IgG+, % [3]: 4.8 ± 0.5%
B-IgG+, abs [3]: 0.09 ± 0.007 10^9/l
B-IgM+, % [3]: 4.1 ± 0.6 %
B-IgM+, abs [3]: 0.12 ± 0.003 10^9/l
CD2-DR+, & [3]: 32 ± 3 &
CD2-DR+, abs [3]: 0.66 ± 0.10** 10^9/l
CD3, % [3]: 59.2 ± 2.1 %
CD3, abs [3]: 1.21 ± 0.15 10^9/l
CD4, % [3]: 36.2 ± 1.7%
CD4, abs [3]: 0.74 ± 0.08 10^9/l
CD8, % [3]: 23.2 ± 2.1 %
CD8, abs [3]: 0.48 ± 0.07** 10^9/l
IMI, % [3]: 75 ± 6 %
IgA [3]: 1.2 ± 0.4 g/L
IgG [3]: 10.9 ± 1.3 g/L
IgM [3]: 1.06 ± 0.06 g/L
Leukocytes, abs [3]: 5.6 ± 0.4 10^9/l
Lymphocytes, abs [3]: 2.1 ± 0.3 10^9/l
T4/T8 [3]: 1.58 ± 0.04
good result, share of patients [4, 9]: 76.5%
satisfactory result, number of patients [4, 9]: 8 patients
good result, number of patients ([4]; 34 chronic prostatitis patients, IM862 with traditional treatment): 26 patients
elevated and lowered immune indices upon completion of treatment ([4]; IM862 use): a normalization was observed in all the elevated and lowered indices
B-lymphocytes % [4, 10]: 27.24 ± 1.44%
B-lymphocytes Abs. quantity ×10^9 [4, 10]: 0.54 ± 0.10 ×10^9
Complement units [4, 10]: 29.43 ± 0.53 units
IgA [4, 10]: 2.20 ± 0.12 g/L
IgG [4, 10]: 12.52 ± 0.63 g/L
Imm. complexes units [4, 10]: 0.080 ± 0.004 units
Phagocytosis % [4, 10]: 39.41 ± 3.51%
T-lymphocytes % [4, 10]: 44.44 ± 2.34%
T-lymphocytes Abs. quantity ×10^9 [4, 10]: 0.88 ± 0.07 ×10^9
IgG [4, 11]: 14.71 ± 1.42 g/L
IgM [4, 11]: 3.44 g/L
T-lymphocytes % ([4]; initial level elevated n = 2, after treatment): 40.0 ± 15.5%
Complement units ([4]; initial level elevated n = 7, after treatment): 30.7 ± 0.89 units
B-lymphocytes % ([4]; initial level elevated n = 8, after treatment): 24.8 ± 2.91^x %
Imm. complexes units ([4]; initial level elevated n = 19, after treatment): 0.08 ± 0.006^x units
Phagocytosis % ([4]; initial level elevated n = 26, after treatment): 37.7 ± 3.94%
Phagocytosis % ([4]; initial level lowered n = 5, after treatment): 36.6 ± 8.54^x %
Imm. complexes units ([4]; initial level lowered n = 8, after treatment): 0.07 ± 0.011 units
B-lymphocytes % ([4]; initial level lowered n = 10, after treatment): 26.0 ± 2.91^x %
Complement units [4, 12]: 34.2 ± 0.93^x units
T-lymphocytes % [4, 12]: 37.9 ± 2.24%
Phagocytosis % ([4]; initial level normal n = 3, after treatment): 58.6 ± 17.98%
Imm. complexes units ([4]; initial level normal n = 7, after treatment): 0.08 ± 0.006 units
Complement units ([4]; initial level normal n = 13, after treatment): 29.3 ± 0.88 units
B-lymphocytes % ([4]; initial level normal n = 16, after treatment): 29.2 ± 2.15%
T-lymphocytes % ([4]; initial level normal n = 18, after treatment): 50.0 ± 3.57%
IgG ([4]; lowered in 2 patients, after treatment): 7.80 ± 1.13 g/L
IgM ([4]; normal in 33 patients, after treatment): 2.08 ± 0.12 g/L
Ig (character image) l [4, 13]: 2.20 ± 0.12
IgG [4, 13]: 12.51 g/L
Considerable Improvement, number of patients [5, 14]: 1
Recovery, number of patients [5, 14]: 4
improvement, number of patients [5, 14]: 1
Considerable Improvement, number of patients ([5]; Chronic abscessing pyoderma): 2
Recovery, number of patients ([5]; Chronic abscessing pyoderma): 5
Recovery, number of patients ([5]; Chronic furunculosis): 10
Recovery, number of patients ([5]; Chronic recurring folliculitis-deep): 1
Recovery, number of patients ([5]; Chronic recurring osteofolliculitis): 3
Considerable Improvement, number of patients ([5]; Chronic ulcerative pyoderma): 2
Considerable Improvement, number of patients ([5]; Papulous-pustulous comedones): 3
Recovery, number of patients ([5]; Papulous-pustulous comedones): 4
Considerable Improvement, number of patients ([5]; Total number of patients): 8
improvement, number of patients ([5]; Total number of patients): 1
Recovery, number of patients ([5]; Total number of patients (36 resistant to standard therapy)): 27
CIC units ([5]; after IM862): 45.9 ± 4.9 units
Cathion proteins MCC × 10^9/l ([5]; after IM862): 1.46 ± 0.05^y
Etr-RFC/Ets-RFC ([5]; after IM862): 5.32 ± 1.00
LMIF with ConA % ([5]; after IM862): 58.3 ± 3.9^yy %
LMIF with HSA % ([5]; after IM862): 84.9 ± 5.5^yy %
LMIF with PHA % ([5]; after IM862): 40.2 ± 3.9^y %
Lymphocytes % ([5]; after IM862): 30.8 ± 1.4%
Lymphocytes ×10^9/l ([5]; after IM862): 2.41 ± 0.14 ×10^9/l
Monocytes × 10^9/l ([5]; after IM862): 0.43 ± 0.04 × 10^9/l
NK-activity (CI) % ([5]; after IM862): 45.18 ± 2.55^y %
Neutrophils En-RFC % ([5]; after IM862): 14.7 ± 1.6%
Neutrophils En-RFC × 10^9/l ([5]; after IM862): 0.7 ± 0.11 × 10^9/l
Neutrophils × 10^9/l ([5]; after IM862): 4.54 ± 0.25 × 10^9/l
Phagocytic index % × 10^9/l ([5]; after IM862): 5.31 ± 0.20^y
T4/T8 ([5]; after IM862): 1.32 ± 011^y^
T-helpers Etr-RFC % ([5]; after IM862): 51.7 ± 2.8^y %
T-helpers Etr-RFC ×10^9/l ([5]; after IM862): 1.28 ± 0.09^y ×10^9/l
T-helpers OKT4^+ % ([5]; after IM862): 20.3 ± 2.9%
T-helpers OKT4^+ ×10^9/l ([5]; after IM862): 0.46 ± 0.05^y ×10^9/l
T-lymphocytes E-RFC % ([5]; after IM862): 69.3 ± 1.9^y %
T-lymphocytes E-RFC ×10^9/l ([5]; after IM862): 1.68 ± 0.12^y ×10^9/l
T-suppressors Etr-RFC % ([5]; after IM862): 17.9 ± 2.4%
T-suppressors Etr-RFC ×10^9/l ([5]; after IM862): 0.45 ± 0.08 ×10^9/l
T-suppressors OKT8 % ([5]; after IM862): 17.1 ± 1.9%
T-suppressors OKT8 ×10^9/l ([5]; after IM862): 0.39 ± 0.04 ×10^9/l
Leukocytes ×10^9/l ([5]; after IM862 (Table 22)): 7.75 ± 0.33 ×10^9/l
Monocytes % ([5]; after IM862 (Table 24)): 5.65 ± 0.40%
Neutrophils % ([5]; after IM862 (Table 24)): 59.8 ± 1.6%
Phagocytic activity* % [5, 15]: 48.9 ± 2.8%
Phagocytic activity* × 10^9/l [5, 15]: 2.36 ± 0.27 × 10^9/l
B-lymphocytes (IgA^+) % ([5]; after treatment with IM862): 2.4 ± 0.3%
B-lymphocytes (IgA^+) ×10^9/l ([5]; after treatment with IM862): 0.06 ± 0.008 ×10^9/l
B-lymphocytes (IgG^+) % ([5]; after treatment with IM862): 14.7 ± 2.16%
B-lymphocytes (IgG^+) ×10^9/l ([5]; after treatment with IM862): 0.19 ± 0.023^y ×10^9/l
B-lymphocytes (IgM^+) % ([5]; after treatment with IM862): 4.4 ± 0.6%
B-lymphocytes (IgM^+) ×10^9/l ([5]; after treatment with IM862): 0.10 ± 0.01 ×10^9/l
B-lymphocytes (Ig^+) % ([5]; after treatment with IM862): 16.9 ± 1.7%
B-lymphocytes (Ig^+) ×10^9/l ([5]; after treatment with IM862): 0.34 ± 0.05 ×10^9/l
B-lymphocytes Em-RFC % ([5]; after treatment with IM862): 12.1 ± 1.5%
B-lymphocytes Em-RFC ×10^9/l ([5]; after treatment with IM862): 0.28 ± 0.04 ×10^9/l
Bacilli/nuclei % ([5]; after treatment with IM862): 3.8 ± 0.6%
Basophils % ([5]; after treatment with IM862): 0.1 ± 0.1%
Body temperature (morning) ([5]; after treatment with IM862): 36.2 ± 0.1
ESP, mm/hr ([5]; after treatment with IM862): 11.2 ± 1.4 mm/hr
Erythrocytes ×10^12/l ([5]; after treatment with IM862): 5.2 ± 0.6 ×10^12/l
IgA ([5]; after treatment with IM862): 2.40 ± 0.18 g/L
IgG ([5]; after treatment with IM862): 15.5 ± 0.73 g/L
IgM ([5]; after treatment with IM862): 1.25 ± 0.12 g/L
Segm./nuclei % ([5]; after treatment with IM862): 61.9 ± 1.4%
Leukocytes ×10^9/l [5, 16]: 7.75 ± 0.36 ×10^9/l
Monocytes % [5, 16]: 5.7 ± 0.4%
Neutrophils % [5, 16]: 59.8 ± 1.6%
side effects / tolerance ([5]; intranasally 100 μg daily, 5 days): No side effects from its use were noted in any of the patients
relapses, number of patients ([5]; observation for 6 months after discharge): 3 patients

From patent US20030198617A1, “Pharmaceutical tryptophan containing dipeptide compositions and methods of use thereof” (priority 1993, published 2003)
